Experimental data reported in patent US20210069134A1 (priority 2019, published 2021).
Entries after “also recorded” stand apart in the source; their conditions may differ.

Experiments:
Type in all cases: in vivo, rat
Long Evans Hooded rats [1] = assay: Elevated Plus Maze (EPM) test after developmental Pb^2+ exposure, acute i.p. drug; conditions: for anxiolytic OTC ratio, sensitivity to drug / EPM track plot and group mean activity (10-min): 43 mg/kg i.p.
Long Evans Hooded rats [2] = assay: Attention Set-Shift Test (ASST) after developmental Pb^2+ exposure with taurine co-treatment; conditions: for Pb^2+-induced frontoexecutive dysfunctions (ASST task performance), overall: both sexes, 150 ppm Pb^2+ + 0.05% Taurine co-treatment; for errors-to-criterion (ETC), odor (OD) and digging medium (MD) simple discrimination training / trials-to-criterion (TTC), odor (OD) and digging medium (MD) simple discrimination training: vs Control and Perinatal; for rate-of-learning cumulative record across ASST stages: 150 ppm Pb^2+ + Taurine 0.05%
[3] = system: prelimbic (PrL), infralimbic (IL), orbital ventral frontal (OV), orbital ventro-lateral (OVL), and hippocampal (HP) brain regions; assay: LC/MS GABA:Neurotransmitter and Taurine:Neurotransmitter ratios in brain sub-regions after the ASST; conditions: male rats, OVL (all four brain regions), taurine co-treatment
Procedure: Immediately following the ASST, rats were deeply anesthetized using Isoflurane, then sacrificed, and their brains were extracted in cold physiological buffered saline (PBS) pH 7.4 in under 2-min. The rat whole brains were then transferred into a coronal sectioning steel brain matrix for 175-300 g rodents (Stoelting, Inc. Wood Dale, Ill.). […] The collected brain regions were stored at −80° C. until ready for subsequent neurochemical assessments.
The brain sub-regions were then manually homogenized with sterile glass homogenizers (i.e., total volume 3 mL) using a 10 mg/100 μL (1:10) dilution of 100% acetonitrile ([…]) (Sigma-Aldrich, St Louis, Mo.) as a miscible (i.e., fully dissolvable solution) with a dielectric constant to study the separation of chemicals by mass charge and polarity. Post homogenization, samples were sonicated for 30 sec with a pulse on:off time of 10 sec at an amplitude of 20%, then centrifuged at […] for 5-min at 4° C., and the supernatant collected and stored at −20° C. until ready for LC/MS. […] The mass/charge (m/z) values of neurotransmitters were monitored and peak heights were obtained to compare the amount of neurotransmitters within- and between-samples. The elution was performed with a flow rate of 0.2 mL/min and the neurotransmitters that were eluted from the column were detected in the positive ion mode. […]

[4] = female rats, 150 ppm Pb^2+ + 0.05% Taurine
[5] = female rats, 150 ppm Pb^2+ + 0.05% Taurine in drinking water to PND 22
[6] = female rats, 150 ppm Pb^2+ + 0.05% Taurine, most recovery at ED and ED-Rev
[7] = male rats, 150 ppm Pb^2+ + 0.05% Taurine
[8] = male rats, 150 ppm Pb^2+ + 0.05% Taurine in drinking water to PND 22
[9] = male rats, 150 ppm Pb^2+ + 0.05% Taurine in drinking water to PND 22, listed as taurine
[10] = male rats, 150 ppm Pb^2+ + 0.05% Taurine, listed as taurine

## NCCC(=O)O [TD-101, 3-aminopropanoic acid]
Long Evans Hooded rats [1]; control female rats
  anxiolytic OTC ratio, sensitivity to drug: most sensitive
Long Evans Hooded rats [1]; control male rats
  anxiolytic OTC ratio, sensitivity to drug: most sensitive

## NCS(=O)(=O)O [TD-102]
Long Evans Hooded rats [1]; Peri-22 1,000 ppm females
  anxiolytic OTC ratio, sensitivity to drug: sensitive
Long Evans Hooded rats [1]; Peri-22 1,000 ppm male rats
  anxiolytic OTC ratio, sensitivity to drug: only sensitive
Long Evans Hooded rats [1]; control male rats
  anxiolytic OTC ratio, sensitivity to drug: most sensitive

## Nc1ccccc1S(=O)(=O)O [TD-103, 2-aminobenzenesulfonic acid]
Long Evans Hooded rats [1]; control female rats
  anxiolytic OTC ratio, sensitivity to drug: most sensitive

## NCCS(=O)(=O)O [Taurine, 2-aminoethanesulfonic acid]
Long Evans Hooded rats [2]
  Pb^2+-induced frontoexecutive dysfunctions (ASST task performance), overall: recovered these frontoexecutive dysfunctions to levels equivalent to Control rats
Long Evans Hooded rats [2]; listed as taurine
  Pb^2+-induced frontoexecutive dysfunctions (ASST task performance), overall: effective in mitigating or at least reducing most; also recorded: sex-dependent recovery
Long Evans Hooded rats [2]; [4]
  ETC, reacquisition learning: no differences
  TTC, reacquisition learning: no differences
Long Evans Hooded rats [2]; [5]
  errors-to-criterion (ETC), OD and MD simple discrimination training: no differences
  trials-to-criterion (TTC), OD and MD simple discrimination training: no differences
Long Evans Hooded rats [2]; [6]
  ASST performance, ETC: recovered these deficits to performance levels comparative to Control males; also recorded: recovered ASST performance to rates comparable to Control female rats
  ASST performance, TTC: recovered these deficits to performance levels comparative to Control males; also recorded: recovered ASST performance to rates comparable to Control female rats
Long Evans Hooded rats [2]; [7]
  ETC, reacquisition learning (CD-Reacquisition and ID-Reacquisition): fewer ETC errors
  TTC, reacquisition learning (CD-Reacquisition and ID-Reacquisition): recovery from the TTC reacquisition learning impairment
Long Evans Hooded rats [2]; [8]
  errors-to-criterion (ETC), odor (OD) and digging medium (MD) simple discrimination training: significant difficulty in learning
  trials-to-criterion (TTC), odor (OD) and digging medium (MD) simple discrimination training: significant difficulty in learning
Long Evans Hooded rats [2]; [9]
  errors-to-criterion (ETC), odor (OD) and digging medium (MD) simple discrimination training: caused learning delays
  trials-to-criterion (TTC), odor (OD) and digging medium (MD) simple discrimination training: caused learning delays
Long Evans Hooded rats [2]; [10]
  ETC, reacquisition learning (CD-Reacquisition and ID-Reacquisition): recovered reacquisition learning performance deficits to rates comparable to Control male rats
  TTC, reacquisition learning (CD-Reacquisition and ID-Reacquisition): recovered reacquisition learning performance deficits to rates comparable to Control male rats
Long Evans Hooded rats [2]; male rats, 150 ppm Pb^2+ + 0.05% Taurine, most recovery at CD-Rev and ID
  ASST performance, ETC: recovered these deficits to performance levels comparative to Control males; also recorded: recovered ASST performance to rates comparable to Control male rats
Long Evans Hooded rats [2]; male rats, 150 ppm Pb^2+ + 0.05% Taurine, most recovery at CD-Rev, ID, ED
  ASST performance, TTC: recovered these deficits to performance levels comparative to Control males; also recorded: recovered ASST performance to rates comparable to Control male rats
Long Evans Hooded rats [2]; single representative female rat
  rate-of-learning cumulative record across ASST stages: quicker rate-of-learning with less sequential errors
Long Evans Hooded rats [2]; single representative female rat, listed as taurine
  rate-of-learning cumulative record across ASST stages: significant improvements
Long Evans Hooded rats [2]; single representative male rat
  rate-of-learning cumulative record across ASST stages: quicker rate-of-learning with less sequential errors
Long Evans Hooded rats [2]; single representative male rat, listed as taurine
  rate-of-learning cumulative record across ASST stages: significant improvements
[3]
  Taurine:Dopamine levels: elevated
Long Evans Hooded rats [1]; 43 mg/Kg i.p. 15-min prior to testing, PND 36-45, both genders
  Pb^2+-induced anxiogenic response in the EPM: ameliorated in a gender-specific manner
Long Evans Hooded rats [1]; Control (0 ppm) female rats
  EPM track plot and group mean activity (10-min): increased anxiolytic response
Long Evans Hooded rats [1]; Control (0 ppm) male rats
  EPM track plot and group mean activity (10-min): increased anxiolytic response
